Data published in US20240350489A1, “LOU064 FOR TREATING MULTIPLE SCLEROSIS” (NOVARTIS AG, priority 2021, published 2024).
Entries after “also recorded” stand apart in the source; their conditions may differ.

Legend:
[1] = system: neuroinflammation signature in microglia; test: scRNA-seq analysis of brains and spinal cords of RatMOG EAE mice; format: in vivo, mouse; details: LOU064 vs controls
Experimental: 10X Genomics Chromium raw sequencing reads were processed with Cell Ranger [Zheng, G. et al. (2017), Nat Commun 8, 14049]. All subsequent analyses were carried out in R v4.1 and Bioconductor v3.14, loosely following the guidelines in “Orchestrating single-cell analysis with Bioconductor” [Amezquita, R. A. et al (2020), Nat Methods 17, 137-145] and using the framework provided by the scuttle, scater [Davis J McCarthy et al. (2017), Bioinformatics, Vol 33, 8, 1179-1186] and scran [Lun ATL et al. (2016), F1000 Research, 5:2122;
To correct for library size and composition biases, normalization was performed by pooling cells and deconvoluting size factors, followed by a log2 transformation. […]
For each cell type, pseudobulk differential expression analysis was performed using edgeR [Robinson M D et al. (2010), Bioinformatics, 26(1), 139-140], followed by gene set enrichment analysis with fgsea [Gennady Korotkevich et al., doi: https://doi.org/10.1101/060012] and multiple gene set collection from MSigDB [Arthur Liberson et al., Bioinformatics, Vol 27, 12:1739-1740]. A neuroinflammation signature from the Human Phenotype Ontology [Kohler S. et al. (2021) Nucleic Acids Res. 49(D1):D1207-D1217. doi: 10.1093/nar/gkaa1043] was scored with UCell [Andreatta M. et al. (2021), Comput Struct Biotechnol J. 19:3796-3798] and its significance assessed with a one-tailed Mann-Whitney U test.

[2] = 52-week open label extension study in CSU subjects, safety; details: for safety signals / safety profile: 100 mg b.i.d. open-label, interim analyses
Experimental: In a 52-week open label extension study to evaluate the long-term safety and tolerability of LOU064 in eligible subjects with CSU who participated in the Phase 2b study the dose used was 100 mg b.i.d.

HumanMOG-induced EAE = HumanMOG-induced EAE in C57BL/6 mouse, prophylactic b.i.d. dosing; format: in vivo
From the text: There is no known naturally occurring MS-like disease in rodents or non-human primates. Following immunization of susceptible rodent strains with CNS-specific myelin proteins emulsified in complete Freund's adjuvant (CFA) an induced disease model develops. Experimental autoimmune encephalitis (EAE) mimics many of the pathological phenotypes of MS with focal, demyelinating lesions of the CNS white matter. In the C57BL/6 mouse there are two variants of myelin oligodendrocyte glycoprotein (MOG)-induced EAE depending on whether the human (HumanMOG) or rat (RatMOG) recombinant protein sequences are used (Lyons J.A. et al. (1999) European Journal of Immunology 29:3432-3439; Oliver A. R. et al. (2003) J Immunology 171: 462-468). Minor amino acid residue differences result in HumanMOG-induced EAE being exquisitely B-cell dependent as the APC, whilst RatMOG-induced EAE is B-cell independent and requires dendritic cells as the dominant APC population (Lyons et al 1999; Molnarfi N. et al. (2013) Journal of Experimental Medicine 210(13):2921-2937).
In HumanMOG-induced EAE the BTK inhibitor LOU064 was dosed twice daily (b.i.d.) at 3 mg/kg or 30 mg/kg at 12 hr intervals. Prophylactic dosing of LOU064 was initiated 6 hours prior to MOG/CFA immunization and continued until study end.
EAE was assessed using a scoring system, outlined in Table 1. Clinical scores and body weights were assessed daily throughout the experiment.
According to the animal regulations, humane endpoints for EAE mice were score 3 (>7 days), score 3.5 (>3 days), or immediately if score 4 was reached.
Using a short eight-day (pre-disease onset) EAE protocol, the immune priming mechanisms during the HumanMOG model were investigated.

[3] = Co-administration with oral contraceptives; format: in vivo; details: co-administered ethinylestradiol or levonorgestrel
RatMOG-induced EAE = test: RatMOG-induced EAE, b.i.d. dosing until study end; format: in vivo
Experimental: Dosing of LOU064 was initiated 4 hours prior to MOG/CFA immunization and continued twice daily until study end.

[4] = 100 mg B.I.D., N = 100, interim cut off 31 Aug. 2020
[5] = ES, 100 mg b.i.d., N = 183, listed as remibrutinib

C=CC(=O)N(C)CCOc1c(N)ncnc1-c1cc(F)cc(NC(=O)c2ccc(C3CC3)cc2F)c1C [LOU064, N-(3-(6-amino-5-(2-(N-methylacrylamido)ethoxy)pyrimidin-4-yl)-5-fluoro-2-methylphenyl)-4-cyclopropyl-2-fluorobenzamide]
neuroinflammation gene signature in microglia [1]: significant downregulation across most conditions; also recorded: significantly downregulated
Death [2, 4]: 0 n
Discontinued study due to an SAE(s) [2, 4]: 0 n
safety signals / safety profile [2]: No safety signal has been observed; also recorded: no safety signals have been observed; also recorded: well tolerated and with a favorable safety profile
safety signals / safety profile ([2]; listed as Remibrutinib): no new safety signals
dose-limiting liver enzyme elevations and other off-target-effects ([2]; 100 mg b.i.d. over an extended period of time): does not induce any dose-limiting liver enzyme elevations and other off-target-effects
AE Headache (PT) ([2]; 100 mg b.i.d., N = 100 interim): 6%
AE Infections and infestations (SOC) ([2]; 100 mg b.i.d., N = 100 interim): 14%
AE Skin and subcutaneous tissue disorders (SOC) ([2]; 100 mg b.i.d., N = 100 interim): 13%
AE diarrhea (PT) ([2]; 100 mg b.i.d., N = 100 interim): 4%
AE dizziness (PT) ([2]; 100 mg b.i.d., N = 100 interim): 3%
AE gastroenteritis (PT) ([2]; 100 mg b.i.d., N = 100 interim): 3%
bleeding events or events under SOC Blood and lymphatic system disorders ([2]; 100 mg b.i.d., N = 100 interim): no bleeding events
ECG findings or QT of >500 ms ([2]; ES and CS, any patient): no significant ECG findings or QT of >500 ms noted in any patient
AE Headache (PT) [2, 5]: 6.6%
AE Infections and infestations (SOC) [2, 5]: 23.0%
AE Skin and subcutaneous tissue disorders (SOC) [2, 5]: 17.5%
Discontinued study treatment due to AE(s) [2, 5]: 6 n
Patients with SAE(s) [2, 5]: 4 n
AE Skin and subcutaneous tissue disorders (SOC) ([2]; ES, 100 mg b.i.d., N=183): 32 n
Incidence of AESI bleeding ([2]; ES, 100 mg b.i.d., N=183): 4.4%
Incidence of AESI cytopenias ([2]; ES, 100 mg b.i.d., N=183): 0.5%
Incidence of AESI infections ([2]; ES, 100 mg b.i.d., N=183): 23%
deaths ([2]; ES, 100 mg b.i.d., N=183): no deaths
patients with isolated ALT>3xULN ([2]; ES, N=183, normalized within 4 weeks): 1 patient
neurologic symptoms and EAE-induced weight loss (HumanMOG-induced EAE; 3 mg/kg b.i.d.): only a fairly weak reduction
cumulative disease burden (HumanMOG-induced EAE; 30 mg/kg b.i.d.): significantly reduced
disease incidence / frequency of EAE onset (HumanMOG-induced EAE; 30 mg/kg b.i.d.): reduction in the frequency of EAE onset; also recorded: significantly reduced disease incidence
peak EAE score (HumanMOG-induced EAE; 30 mg/kg b.i.d.): significantly reduced
EAE clinical symptoms / EAE scores (HumanMOG-induced EAE; 30 mg/kg p.o. b.i.d.): improvement in EAE scores; also recorded: significantly reduced clinical symptoms of EAE; also recorded: highly effective at inhibiting HumanMOG-induced EAE induction; also recorded: strongly reduced neurologic symptoms
inflammation-induced cachexia / daily body weight change (HumanMOG-induced EAE; 30 mg/kg p.o. b.i.d.): significantly improved; also recorded: inhibited inflammation-induced cachexia; also recorded: strongly reduced
tolerability (HumanMOG-induced EAE; 3 and 30 mg/kg p.o. b.i.d.): well tolerated in all animals
adverse events (HumanMOG-induced EAE; mouse, in vivo): no adverse events were observed with either dose group
weight gain in immunized mice (inflammation-induced cachexia) (HumanMOG-induced EAE; short eight-day pre-EAE protocol, 30 mg/kg twice daily): improved weight gain
impact on exposure and efficacy of oral contraceptives [3]: without a major impact on their exposure and efficacy
tolerability (RatMOG-induced EAE; 30 mg/kg b.i.d.): well tolerated in all mice
cumulative disease burden (RatMOG-induced EAE; 30 mg/kg b.i.d., p value=0.013): significantly reduced
disease incidence and time of EAE onset (RatMOG-induced EAE; 30 mg/kg b.i.d., p value=0.018): reduction in the incidence of EAE and a delayed onset; also recorded: significantly reduced disease incidence
clinical symptoms of EAE / EAE scores (RatMOG-induced EAE; 30 mg/kg p.o. b.i.d.): inhibited inflammation-induced clinical symptoms of EAE and cachexia; also recorded: efficacious at reducing the severity of RatMOG-induced EAE; also recorded: improvement in EAE scores
daily body weight changes (cachexia) (RatMOG-induced EAE; 30 mg/kg p.o. b.i.d.): significantly reduced
